Data published in patent US20070149480A1 (Alcon, Inc., priority 2005, published 2007).
Converted amounts (≈) assume the structure as drawn.

Columns and labels:
[1] = Solubility of RTKi in phosphate buffer vehicle containing sulfobutylether beta cyclodextrin (SBCD); format: physicochemical; conditions: for solubility: RTKi Solubility
Text: (§1) The present inventors have discovered that use of cyclodextrin derivatives to solubilize highly insoluble anti-angiogenic active compounds provides an efficacious ophthalmic formulation. […] Prototype intravitreal vehicle is shown in Example 1, and intravitreal and PJ formulations of the active compound containing HPCD are provided in Examples 2 and 3, respectively.

FGFR = test: Kinase inhibition, cell-free enzymatic assay; format: biochemical; conditions: 1 mM ATP
Procedure: All data reported as IC50 values for kinase inhibition in cell-free enzymatic assays; ND denotes no data. Values determined @ 1 mM ATP.

[2] = Solubility of RTKi in phosphate buffer vehicle containing hydroxypropyl cyclodextrin (HPCD); format: physicochemical; conditions: for solubility enhancement: 10% HPCD in phosphate buffer vs phosphate buffer alone; for solubility: RTKi Solubility
Text: as §1
Solubility of RTKi in phosphate buffer vehicle containing various amount of hydroxypropyl cyclodextrin (HPCD).

**Q.** For `Cc1ccc(F)c(NC(=O)Nc2ccc(-c3cccc4[nH]nc(N)c34)cc2)c1` [RTKi, N-[4-(3-amino-1H-indazol-4-yl)phenyl]-N′-(2-fluoro-5-methylphenyl) urea], which “RTKi Solubility” value ([1]; 10% SBCD Phosphate Buffer) is on record?
**A.** 2526.5 µg/mL

**Q.** And the solubility ([1]; phosphate buffer (0% SBCD), pH 7.2, aqueous buffer)?
**A.** 0.59 µg/mL (≈ 1.57 µM)

**Q.** What about the solubility ([1]; phosphate buffer with 1% SBCD, pH 7.2, aqueous with cosolvent or surfactant or cyclodextrin, 1% SBCD in Phosphate Buffer) of the same compound?
**A.** 188 µg/mL (≈ 501 µM)

**Q.** What about the solubility ([1]; phosphate buffer with 2.5% SBCD, pH 7.2, aqueous with cosolvent or surfactant or cyclodextrin, 2.5% SBCD Phosphate Buffer) of the same compound?
**A.** 641 µg/mL (≈ 1710 µM)

**Q.** And the solubility ([1]; phosphate buffer with 5% SBCD, pH 7.2, aqueous with cosolvent or surfactant or cyclodextrin, 5% SBCD Phosphate Buffer)?
**A.** 1090 µg/mL (≈ 2910 µM)

**Q.** And the solubility ([1]; phosphate buffer with 10% SBCD, pH 7.2, aqueous with cosolvent or surfactant or cyclodextrin, 10% SBCD Phosphate Buffer)?
**A.** 2520 µg/mL (≈ 6710 µM)

**Q.** What about the solubility ([1]; phosphate buffer with 20% SBCD, pH 7.2, aqueous with cosolvent or surfactant or cyclodextrin, 20% SBCD Phosphate Buffer) of the same compound?
**A.** 4120 µg/mL (≈ 11000 µM)

**Q.** What about the IC50 (FGFR) of the same compound?
**A.** > 12.5 µM

**Q.** What about the “RTKi Solubility” value ([2]; 10% HPCD Phosphate Buffer) of the same compound?
**A.** 1098.8 µg/mL

**Q.** And the “solubility expressed as percent” value ([2]; 10% HPCD in phosphate buffer)?
**A.** about 0.1%

**Q.** And the solubility enhancement [2]?
**A.** More than 1800 fold

**Q.** And the solubility enhancement ([2]; listed as active compound)?
**A.** approximately 1800 fold

**Q.** What about the solubility ([2]; phosphate buffer (0% HPCD), pH 7.2, aqueous buffer, pH 7.2) of the same compound?
**A.** 0.59 µg/mL (≈ 1.57 µM)

**Q.** And the solubility ([2]; phosphate buffer with 1% HPCD, pH 7.2, aqueous with cosolvent or surfactant or cyclodextrin, 1% HPCD in Phosphate Buffer)?
**A.** 82.3 µg/mL (≈ 219 µM)

**Q.** What about the solubility ([2]; phosphate buffer with 5% HPCD, pH 7.2, aqueous with cosolvent or surfactant or cyclodextrin, 5% HPCD Phosphate Buffer) of the same compound?
**A.** 527 µg/mL (≈ 1400 µM)

**Q.** And the solubility ([2]; phosphate buffer with 10% HPCD, pH 7.2, aqueous with cosolvent or surfactant or cyclodextrin, 10% HPCD Phosphate Buffer)?
**A.** 1090 µg/mL (≈ 2900 µM)
